Data taken from patent publication US6914045B2, “Glycopeptide antibiotics” (Wyeth Holdings Corporation, priority 2001, dated 2005).
Converted amounts (≈) assume the structure as drawn.

Legend:
Assay in all cases: in vitro antibacterial evaluation, MIC by broth dilution
Type in all cases: cell-based
Enterococcus sp. = conditions: broth dilution, 18 hours at 35° C.
In short: (§1)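 Read-out: the lowest concentration at which the test strain fails to grow. Serial dilutions (64-0.06 μg/mL) in Muller-Hinton II […], 5×10^5 CFU/mL inoculum, NCCLS M7-A2 procedure.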

Escherichia coli = conditions: 18 hours at 35° C.
In short: as §1

Staphylococcus sp. = conditions: broth dilution, 18 hours at 35° C.
In short: as §1

Streptococcus sp. = conditions: broth dilution, 18 hours at 35° C.
In short: as §1

With `N=C1NCC(C(O)C2NC(=O)C(Cc3ccc(OC4OC(CO)C(OC5OC6COC7(OC6C6OC8(OC56)C5CC6CC(C5)CC8C6)C5CC6CC(C5)CC7C6)C(O)C4O)cc3)NC(=O)C(CC3CCCCC3)NC(=O)CNC(=O)C(CO)NC(=O)C(C(O)C3CNC(=N)N3C3OC(CO)C(O)C(O)C3O)NC2=O)N1` (centres unmarked) [Example 106b, Cyclo[3-cyclohexylalanyl-O-[4-O-[2,3:4,6-di-O-(2-adamantylidene)hexopyranosyl]hexopyranosyl]tyrosyl-3-(2-iminoimidazolidin-4-yl)seryl-3-(3-hexopyranosyl-2-iminoimidazolidin-4-yl)-serylserylglycyl]] the “MIC Enterococcus avium (GC 4558)” value (Enterococcus sp.; Enterococcus avium (GC 4558)) was 4 µg/mL (≈ 2.58 µM), the “MIC Enterococcus faecalis (ATCC 29212)” value (Enterococcus sp.; Enterococcus faecalis (ATCC 29212)) was 8 µg/mL (≈ 5.16 µM) and the “MIC Enterococcus faecalis (GC 2242)” value (Enterococcus sp.; Enterococcus faecalis (GC 2242)) was 8 µg/mL (≈ 5.16 µM). For the same compound, the “MIC Enterococcus faecalis (GC 2691)” value (Enterococcus sp.; Enterococcus faecalis (GC 2691)) was 16 µg/mL (≈ 10.3 µM), the “MIC Enterococcus faecalis (GC 3059)” value (Enterococcus sp.; Enterococcus faecalis (GC 3059)) was 16 µg/mL (≈ 10.3 µM) and the “MIC Enterococcus faecalis (GC 4552)” value (Enterococcus sp.; Enterococcus faecalis (GC 4552)) was 8 µg/mL (≈ 5.16 µM). The “MIC Enterococcus faecalis (GC 4553)” value (Enterococcus sp.; Enterococcus faecalis (GC 4553)) was 8 µg/mL (≈ 5.16 µM), the “MIC Enterococcus faecalis (GC 4554)” value (Enterococcus sp.; Enterococcus faecalis (GC 4554)) was 16 µg/mL (≈ 10.3 µM) and the “MIC Enterococcus faecalis (GC 6189)” value (Enterococcus sp.; Enterococcus faecalis (GC 6189)) was 8 µg/mL (≈ 5.16 µM). The “MIC Enterococcus faecium (GC 2243)” value (Enterococcus sp.; Enterococcus faecium (GC 2243)) was 8 µg/mL (≈ 5.16 µM), the “MIC Enterococcus faecium (GC 4556)” value (Enterococcus sp.; Enterococcus faecium (GC 4556)) was 8 µg/mL (≈ 5.16 µM) and the “MIC Enterococcus faecium (GC 4557)” value (Enterococcus sp.; Enterococcus faecium (GC 4557)) was 4 µg/mL (≈ 2.58 µM). The “MIC Enterococcus faecalis (ATCC 29212)” value (Enterococcus sp.; strain ATCC 29212) was 8 µg/mL (≈ 5.16 µM), the “MIC Enterococcus faecalis (GC 2242)” value (Enterococcus sp.; strain GC 2242) was 8 µg/mL (≈ 5.16 µM) and the “MIC Enterococcus faecium (GC 2243)” value (Enterococcus sp.; strain GC 2243) was 8 µg/mL (≈ 5.16 µM). The “MIC Enterococcus faecalis (GC 2691)” value (Enterococcus sp.; strain GC 2691) was 16 µg/mL (≈ 10.3 µM), the “MIC Enterococcus faecalis (GC 3059)” value (Enterococcus sp.; strain GC 3059) was 16 µg/mL (≈ 10.3 µM) and the “MIC Enterococcus faecalis (GC 4552)” value (Enterococcus sp.; strain GC 4552) was 8 µg/mL (≈ 5.16 µM). For the same compound, the “MIC Enterococcus faecalis (GC 4553)” value (Enterococcus sp.; strain GC 4553) was 8 µg/mL (≈ 5.16 µM), the “MIC Enterococcus faecalis (GC 4554)” value (Enterococcus sp.; strain GC 4554) was 16 µg/mL (≈ 10.3 µM) and the “MIC Enterococcus faecium (GC 4556)” value (Enterococcus sp.; strain GC 4556) was 8 µg/mL (≈ 5.16 µM). For the same compound, the “MIC Enterococcus faecium (GC 4557)” value (Enterococcus sp.; strain GC 4557) was 4 µg/mL (≈ 2.58 µM), the “MIC Enterococcus avium (GC 4558)” value (Enterococcus sp.; strain GC 4558) was 4 µg/mL (≈ 2.58 µM) and the “MIC Enterococcus faecalis (GC 6189)” value (Enterococcus sp.; strain GC 6189) was 8 µg/mL (≈ 5.16 µM). For the same compound, the “MIC Escherichia coli (ATCC 25922)” value (Escherichia coli; strain ATCC 25922) was 64 µg/mL (≈ 41.2 µM), the “MIC Escherichia coli (GC 4559)” value (Escherichia coli; strain GC 4559) was 32 µg/mL (≈ 20.6 µM) and the “MIC Escherichia coli (GC 4560)” value (Escherichia coli; strain GC 4560) was 8 µg/mL (≈ 5.16 µM). The “MIC Coagulase Negative Staphylococcus (GC 4547)” value (Staphylococcus sp.) was 8 µg/mL (≈ 5.16 µM), the “MIC Coagulase Negative Staphylococcus (GC 4548)” value (Staphylococcus sp.) was 4 µg/mL (≈ 2.58 µM) and the “MIC Coagulase Negative Staphylococcus (GC 4549)” value (Staphylococcus sp.) was 4 µg/mL (≈ 2.58 µM). For the same compound, the “MIC Coagulase Negative Staphylococcus (GC 4551)” value (Staphylococcus sp.) was 8 µg/mL (≈ 5.16 µM), the “MIC Staphylococcus aureus (ATCC 29213)” value (Staphylococcus sp.) was 8 µg/mL (≈ 5.16 µM) and the “MIC Staphylococcus aureus (GC 1131)” value (Staphylococcus sp.) was 8 µg/mL (≈ 5.16 µM). The “MIC Staphylococcus aureus (GC 3051)” value (Staphylococcus sp.) was 8 µg/mL (≈ 5.16 µM), the “MIC Staphylococcus aureus (GC 3053)” value (Staphylococcus sp.) was 8 µg/mL (≈ 5.16 µM) and the “MIC Staphylococcus aureus (GC 4541)” value (Staphylococcus sp.) was 16 µg/mL (≈ 10.3 µM). For the same compound, the “MIC Staphylococcus aureus (GC 4542)” value (Staphylococcus sp.) was 8 µg/mL (≈ 5.16 µM), the “MIC Staphylococcus aureus (GC 4544)” value (Staphylococcus sp.) was 16 µg/mL (≈ 10.3 µM) and the “MIC Staphylococcus aureus (GC 4545)” value (Staphylococcus sp.) was 8 µg/mL (≈ 5.16 µM). The “MIC Staphylococcus aureus-SMITH (GC 4543)” value (Staphylococcus sp.) was 8 µg/mL (≈ 5.16 µM), the “MIC Staphylococcus haemolyticus (GC 4546)” value (Staphylococcus sp.) was 4 µg/mL (≈ 2.58 µM) and the “MIC Staphylococcus haemolyticus (GC 4546)” value (Staphylococcus sp.; strain GC 4546) was 4 µg/mL (≈ 2.58 µM). For the same compound, the “MIC Coagulase Negative Staphylococcus (GC 4547)” value (Staphylococcus sp.; strain GC 4547) was 8 µg/mL (≈ 5.16 µM), the “MIC Coagulase Negative Staphylococcus (GC 4548)” value (Staphylococcus sp.; strain GC 4548) was 4 µg/mL (≈ 2.58 µM) and the “MIC Coagulase Negative Staphylococcus (GC 4549)” value (Staphylococcus sp.; strain GC 4549) was 4 µg/mL (≈ 2.58 µM). The “MIC Coagulase Negative Staphylococcus (GC 4551)” value (Staphylococcus sp.; strain GC 4551) was 8 µg/mL (≈ 5.16 µM), the “MIC Staphylococcus aureus-SMITH (GC 4543)” value (Staphylococcus sp.; strain SMITH GC 4543) was 8 µg/mL (≈ 5.16 µM) and the “MIC Staphylococcus aureus (ATCC 29213)” value (Staphylococcus sp.; strain ATCC 29213) was 8 µg/mL (≈ 5.16 µM). The “MIC Staphylococcus aureus (GC 1131)” value (Staphylococcus sp.; strain GC 1131) was 8 µg/mL (≈ 5.16 µM), the “MIC Staphylococcus aureus (GC 3051)” value (Staphylococcus sp.; strain GC 3051) was 8 µg/mL (≈ 5.16 µM) and the “MIC Staphylococcus aureus (GC 3053)” value (Staphylococcus sp.; strain GC 3053) was 8 µg/mL (≈ 5.16 µM). The “MIC Staphylococcus aureus (GC 4541)” value (Staphylococcus sp.; strain GC 4541) was 16 µg/mL (≈ 10.3 µM), the “MIC Staphylococcus aureus (GC 4542)” value (Staphylococcus sp.; strain GC 4542) was 8 µg/mL (≈ 5.16 µM) and the “MIC Staphylococcus aureus (GC 4544)” value (Staphylococcus sp.; strain GC 4544) was 16 µg/mL (≈ 10.3 µM). The “MIC Staphylococcus aureus (GC 4545)” value (Staphylococcus sp.; strain GC 4545) was 8 µg/mL (≈ 5.16 µM), the “MIC Streptococcus agalactiae (GC 4564)” value (Streptococcus sp.; Streptococcus agalactiae (GC 4564)) was 0.5 µg/mL (≈ 0.322 µM) and the “MIC Streptococcus pneumoniae (ATCC 6301)” value (Streptococcus sp.; Streptococcus pneumoniae (ATCC 6301)) was 0.5 µg/mL (≈ 0.322 µM). The “MIC Streptococcus pneumoniae (GC 1894)” value (Streptococcus sp.; Streptococcus pneumoniae (GC 1894)) was under 0.12 µg/mL, the “MIC Streptococcus pneumoniae (GC 4565)” value (Streptococcus sp.; Streptococcus pneumoniae (GC 4565)) was 0.5 µg/mL (≈ 0.322 µM) and the “MIC Streptococcus pyogenes (GC 4563)” value (Streptococcus sp.; Streptococcus pyogenes (GC 4563)) was 0.5 µg/mL (≈ 0.322 µM). The “MIC Streptococcus pneumoniae (ATCC 6301)” value (Streptococcus sp.; strain ATCC 6301) was 0.5 µg/mL (≈ 0.322 µM), the “MIC Streptococcus pneumoniae (GC 1894)” value (Streptococcus sp.; strain GC 1894) was under 0.12 µg/mL and the “MIC Streptococcus pyogenes (GC 4563)” value (Streptococcus sp.; strain GC 4563) was 0.5 µg/mL (≈ 0.322 µM). For the same compound, the “MIC Streptococcus agalactiae (GC 4564)” value (Streptococcus sp.; strain GC 4564) was 0.5 µg/mL (≈ 0.322 µM) and the “MIC Streptococcus pneumoniae (GC 4565)” value (Streptococcus sp.; strain GC 4565) was 0.5 µg/mL (≈ 0.322 µM).
